Results: ChEMBL document CHEMBL1201862, “PubChem BioAssay data set” (2004)
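Dose response: 5 concentrations. Exposure: 48 h. Format: 96-well plates. Endpoint: linear interpolation; highest concentration if not reached. Abbreviation: GI50, concentration required for 50% inhibition of growth.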 Calls of active or inactive are those of the source. Rule as the data show it: active = GI50 up to about 1.1 µM and inactive = higher.

Tests used:
Experiment in all cases: DTP human tumour cell line panel, 48 h
CAKI-1 = tested on: CAKI-1
SNB-19 = tested on: SNB-19
UO-31 = tested on: UO-31
HT-29 = tested on: HT-29
OVCAR-8 = tested on: OVCAR-8
SF-268 = tested on: SF-268
OVCAR-5 = tested on: OVCAR-5
MDA-MB-435 = tested on: MDA-MB-435
OVCAR-3 = tested on: OVCAR-3
Hs-578T = tested on: Hs-578T
SK-MEL-28 = tested on: SK-MEL-28
LOX IMVI = tested on: LOX IMVI
COLO 205 = tested on: COLO 205
NCI-H23 = tested on: NCI-H23
NCI-H460 = tested on: NCI-H460
SK-MEL-2 = tested on: SK-MEL-2
HOP-92 = tested on: HOP-92
RPMI-8226 = tested on: RPMI-8226
T47D = tested on: T47D
OVCAR-4 = tested on: OVCAR-4

Measured: GI50

O=C(COC(=O)c1ccccc1)c1ccc(Br)cc1
inactive: CAKI-1 1.47 µM | SNB-19 16.9 µM | UO-31 1.89 µM | HT-29 15.6 µM | OVCAR-8 12.5 µM | SF-268 19.6 µM | OVCAR-5 10.7 µM | MDA-MB-435 6.78 µM | OVCAR-3 12.9 µM | Hs-578T 14.3 µM | SK-MEL-28 16.9 µM | LOX IMVI 3.06 µM | COLO 205 13.6 µM | NCI-H23 18.3 µM | NCI-H460 18.5 µM | SK-MEL-2 12.2 µM | HOP-92 14.6 µM | RPMI-8226 3.39 µM | T47D 9.06 µM

CC(=O)Oc1cccc2c1C(=O)CCCC2
inactive: CAKI-1 > 100 µM | SNB-19 > 100 µM | UO-31 > 100 µM | HT-29 > 100 µM | OVCAR-8 > 100 µM | SF-268 > 100 µM | OVCAR-5 > 100 µM | MDA-MB-435 > 100 µM | OVCAR-3 > 100 µM | Hs-578T > 100 µM | OVCAR-4 > 100 µM | SK-MEL-28 > 100 µM | LOX IMVI > 100 µM | COLO 205 > 100 µM | NCI-H23 > 100 µM | NCI-H460 > 100 µM | SK-MEL-2 > 100 µM | T47D > 100 µM

COc1ccc(S(=O)(=O)c2nnc(S(=O)(=O)Cc3ccccc3)s2)cc1
inactive: CAKI-1 17.5 µM | SNB-19 20.8 µM | UO-31 21.6 µM | HT-29 17.9 µM | OVCAR-8 21.9 µM | SF-268 33.7 µM | OVCAR-5 25.8 µM | MDA-MB-435 22.5 µM | OVCAR-3 32.2 µM | Hs-578T 21.3 µM | OVCAR-4 44.5 µM | SK-MEL-28 20.5 µM | COLO 205 13 µM | NCI-H23 27.3 µM | NCI-H460 17.4 µM | SK-MEL-2 18.3 µM | RPMI-8226 6.59 µM | T47D 29.6 µM

Oc1ccc(Cl)cc1C1=NC(/N=C\c2ccccc2)=NC(c2ccccc2)C1 (centres undefined)
inactive: CAKI-1 4.3 µM | UO-31 10.5 µM | HT-29 24.8 µM | OVCAR-8 20 µM | SF-268 7.19 µM | OVCAR-5 > 100 µM | MDA-MB-435 > 100 µM | OVCAR-3 11.4 µM | Hs-578T > 100 µM | SK-MEL-28 > 100 µM | COLO 205 > 100 µM | NCI-H23 3.87 µM | SK-MEL-2 > 100 µM | HOP-92 > 100 µM | T47D 13.3 µM

c1ccc2c(c1)c1c(n2CCOCCN2CCOCC2)CCCC1
inactive: CAKI-1 15.2 µM | SNB-19 > 100 µM | UO-31 27.1 µM | HT-29 15.6 µM | OVCAR-8 36.7 µM | SF-268 20.7 µM | OVCAR-5 25.1 µM | OVCAR-3 26.9 µM | Hs-578T 57 µM | OVCAR-4 14.3 µM | SK-MEL-28 19.5 µM | LOX IMVI 20.2 µM | COLO 205 > 10 µM | NCI-H23 32.3 µM | NCI-H460 27.5 µM | SK-MEL-2 24.2 µM | HOP-92 29.2 µM | RPMI-8226 21 µM | T47D 32.2 µM

COC(=O)c1ccccc1CC(Cc1ccccc1)C(=O)OC (centres undefined)
inactive: CAKI-1 83.4 µM | SNB-19 68.4 µM | UO-31 39.1 µM | HT-29 55.5 µM | OVCAR-8 87.1 µM | SF-268 20.3 µM | OVCAR-5 62.7 µM | MDA-MB-435 75.3 µM | OVCAR-3 58.1 µM | Hs-578T 56 µM | OVCAR-4 96.8 µM | SK-MEL-28 > 100 µM | LOX IMVI 58.9 µM | COLO 205 64.6 µM | NCI-H23 46.6 µM | NCI-H460 > 100 µM | SK-MEL-2 36.8 µM | RPMI-8226 27.6 µM | T47D > 10 µM

CCOP(=O)(/C=C/n1cnc2c(=O)n(C(C)=O)c(N)nc21)OCC
inactive: CAKI-1 > 100 µM | SNB-19 > 100 µM | HT-29 > 100 µM | OVCAR-8 > 100 µM | SF-268 > 100 µM | OVCAR-5 > 100 µM | MDA-MB-435 > 100 µM | OVCAR-3 > 100 µM | Hs-578T > 100 µM | OVCAR-4 > 100 µM | SK-MEL-28 > 100 µM | LOX IMVI > 100 µM | COLO 205 > 100 µM | NCI-H23 > 100 µM | NCI-H460 > 100 µM | SK-MEL-2 > 100 µM | RPMI-8226 > 100 µM | T47D > 100 µM

COC(=O)CC1(O)C(C=C(C)C)C(C(=O)OC)C(=O)C(C(=O)OC)C1C(=O)OC (centres undefined)
inactive: CAKI-1 > 100 µM | SNB-19 > 100 µM | UO-31 > 100 µM | HT-29 > 100 µM | OVCAR-8 > 100 µM | SF-268 > 100 µM | OVCAR-5 > 100 µM | MDA-MB-435 > 100 µM | OVCAR-3 > 100 µM | Hs-578T > 100 µM | OVCAR-4 > 100 µM | SK-MEL-28 > 100 µM | LOX IMVI > 100 µM | COLO 205 > 100 µM | NCI-H23 > 100 µM | NCI-H460 > 100 µM | SK-MEL-2 > 100 µM | HOP-92 > 100 µM | RPMI-8226 > 100 µM

NCCCN(CCCN(C(=O)Nc1ccccc1)c1ccccc1)C(=O)Nc1ccccc1
inactive: SNB-19 52.4 µM | UO-31 20.8 µM | HT-29 29.8 µM | OVCAR-8 49.3 µM | SF-268 32.6 µM | OVCAR-5 43.2 µM | Hs-578T 32.7 µM | SK-MEL-28 16.7 µM | LOX IMVI 23.5 µM | COLO 205 36.8 µM | NCI-H23 27.2 µM | NCI-H460 31 µM | SK-MEL-2 21.9 µM | HOP-92 27.2 µM | RPMI-8226 27.7 µM | T47D 28.2 µM

CN(C)c1ccc(/C=C/C(=O)CC(=O)/C=C/c2ccc(N(C)C)cc2)cc1
inactive: CAKI-1 > 100 µM | SNB-19 > 100 µM | UO-31 > 100 µM | HT-29 > 100 µM | OVCAR-8 > 100 µM | SF-268 > 100 µM | OVCAR-5 > 100 µM | MDA-MB-435 > 100 µM | OVCAR-3 65.3 µM | Hs-578T > 100 µM | OVCAR-4 > 100 µM | SK-MEL-28 > 100 µM | LOX IMVI 15.7 µM | COLO 205 > 100 µM | NCI-H460 > 100 µM | SK-MEL-2 > 100 µM | RPMI-8226 > 100 µM | T47D > 100 µM

CCOc1ccc(NC(=S)N/C=C(/C(C)=O)C(=O)Nc2ccccc2C)cc1
inactive: CAKI-1 > 100 µM | SNB-19 > 100 µM | UO-31 > 100 µM | HT-29 > 100 µM | OVCAR-8 > 100 µM | SF-268 > 100 µM | OVCAR-5 > 100 µM | MDA-MB-435 > 100 µM | OVCAR-3 > 100 µM | Hs-578T > 100 µM | OVCAR-4 59.8 µM | LOX IMVI > 100 µM | COLO 205 > 100 µM | NCI-H23 > 100 µM | NCI-H460 > 100 µM | SK-MEL-2 > 100 µM | RPMI-8226 7.35 µM | T47D > 100 µM

CCCCNC(=O)c1cc(S(=O)(=O)n2ccnc2O)c(SC)cc1Cl
inactive: CAKI-1 > 100 µM | SNB-19 > 100 µM | UO-31 > 100 µM | HT-29 > 100 µM | OVCAR-8 > 100 µM | SF-268 > 10 µM | OVCAR-5 > 100 µM | MDA-MB-435 > 100 µM | OVCAR-3 > 100 µM | Hs-578T > 100 µM | OVCAR-4 > 100 µM | SK-MEL-28 > 100 µM | LOX IMVI > 100 µM | COLO 205 > 100 µM | NCI-H23 > 100 µM | NCI-H460 > 100 µM | SK-MEL-2 > 100 µM | RPMI-8226 > 100 µM | T47D > 100 µM

CC(=O)c1ccccc1NP(=O)(c1ccccc1)c1ccccc1
inactive: CAKI-1 30.8 µM | SNB-19 > 100 µM | UO-31 45.3 µM | HT-29 47.1 µM | OVCAR-8 > 100 µM | SF-268 74.5 µM | OVCAR-5 > 100 µM | MDA-MB-435 38.7 µM | OVCAR-3 43.1 µM | Hs-578T 53.3 µM | OVCAR-4 27.5 µM | SK-MEL-28 67.9 µM | LOX IMVI 90.6 µM | COLO 205 13.2 µM | NCI-H23 79.1 µM | NCI-H460 43.6 µM | SK-MEL-2 54.1 µM | RPMI-8226 16.6 µM | T47D 43.3 µM

CC1(C)C(=S)C(C)(C)C1=S
inactive: SNB-19 > 100 µM | UO-31 > 100 µM | HT-29 > 100 µM | SF-268 > 100 µM | OVCAR-5 > 100 µM | MDA-MB-435 > 100 µM | OVCAR-3 > 100 µM | Hs-578T > 100 µM | OVCAR-4 > 100 µM | SK-MEL-28 > 100 µM | LOX IMVI > 100 µM | COLO 205 > 100 µM | NCI-H23 > 100 µM | NCI-H460 > 100 µM | SK-MEL-2 > 100 µM | RPMI-8226 > 100 µM | T47D > 100 µM

N/C(S)=N/N=C/c1cc(CN2CCOCC2)c(N)cn1
inactive: CAKI-1 45.7 µM | SNB-19 47.1 µM | UO-31 28.2 µM | HT-29 50.2 µM | OVCAR-8 18.5 µM | SF-268 23.6 µM | OVCAR-5 60.3 µM | MDA-MB-435 70.3 µM | OVCAR-3 27.7 µM | Hs-578T > 100 µM | LOX IMVI 29.9 µM | COLO 205 26.8 µM | NCI-H23 39.4 µM | NCI-H460 38.4 µM | SK-MEL-2 84.3 µM | RPMI-8226 79.8 µM | T47D 85.9 µM
